Patent US20250361230A1, “LATS Inhibitors and Uses Thereof” (The USA, as Represented by the Secretary, Dept. of Heath …, priority 2022, published 2025)
pIC50: −log10 of the molar value. Where two headings read alike, the source gives them in different places.

Key:
AKT = AKT (Homo sapiens, UniProt P31749); assay: RBC HotSpot kinase assay (33P-ATP, P81 filter-binding), AKT; format: biochemical; conditions: read-out: AKT IC50
Summary of the method: (§1)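 Hepes pH 7.5/MgCl2/EGTA/Brij35/BSA/Na3VO4/DTT buffer, cofactors per kinase; cpd acoustically dispensed, 20 min preinc RT; start w/ 33P-ATP, 2 h RT; P81 filter readout; 10-pt singlet IC50.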

LATS1 = molecular target: T1, LATS1 (Homo sapiens, UniProt O95835); assay: RBC HotSpot kinase assay (33P-ATP, P81 filter-binding), LATS1; format: biochemical; conditions: read-out: LATS1 IC50
T1 sequence (O95835 1-1130): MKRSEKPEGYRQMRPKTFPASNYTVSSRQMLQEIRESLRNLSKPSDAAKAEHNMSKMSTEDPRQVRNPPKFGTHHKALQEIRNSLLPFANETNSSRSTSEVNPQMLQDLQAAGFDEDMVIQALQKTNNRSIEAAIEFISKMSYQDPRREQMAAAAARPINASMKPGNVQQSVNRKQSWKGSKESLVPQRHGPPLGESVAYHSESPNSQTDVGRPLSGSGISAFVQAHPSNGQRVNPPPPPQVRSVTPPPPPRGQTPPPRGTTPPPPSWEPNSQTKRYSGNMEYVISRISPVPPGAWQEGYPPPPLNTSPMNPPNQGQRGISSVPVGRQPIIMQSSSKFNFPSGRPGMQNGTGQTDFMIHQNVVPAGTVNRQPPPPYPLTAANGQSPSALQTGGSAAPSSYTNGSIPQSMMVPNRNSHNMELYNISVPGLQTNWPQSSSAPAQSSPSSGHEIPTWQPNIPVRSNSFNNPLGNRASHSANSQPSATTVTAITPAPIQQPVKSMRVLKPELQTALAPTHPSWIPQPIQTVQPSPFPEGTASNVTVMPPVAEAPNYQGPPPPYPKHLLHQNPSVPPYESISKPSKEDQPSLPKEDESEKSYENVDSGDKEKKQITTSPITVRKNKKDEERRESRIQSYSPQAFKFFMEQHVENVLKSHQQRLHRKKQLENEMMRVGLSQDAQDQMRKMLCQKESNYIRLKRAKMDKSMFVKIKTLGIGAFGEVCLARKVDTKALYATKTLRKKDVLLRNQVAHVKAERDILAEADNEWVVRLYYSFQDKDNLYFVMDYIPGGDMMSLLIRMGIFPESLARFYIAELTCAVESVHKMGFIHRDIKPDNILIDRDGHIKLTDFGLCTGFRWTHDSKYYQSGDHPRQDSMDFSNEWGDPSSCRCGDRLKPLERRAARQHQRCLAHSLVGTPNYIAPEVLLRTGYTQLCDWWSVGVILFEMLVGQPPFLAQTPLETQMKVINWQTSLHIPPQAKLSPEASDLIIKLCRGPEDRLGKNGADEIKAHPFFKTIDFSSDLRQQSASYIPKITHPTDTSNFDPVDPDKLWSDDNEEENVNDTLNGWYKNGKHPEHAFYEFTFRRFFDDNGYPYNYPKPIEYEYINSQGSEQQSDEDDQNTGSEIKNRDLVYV
Summary of the method: as §1

[1] = Table 28, biochemical kinase assay
[2] = Table 32, biochemical kinase assay

Chain of AKT (P31749 whole entry): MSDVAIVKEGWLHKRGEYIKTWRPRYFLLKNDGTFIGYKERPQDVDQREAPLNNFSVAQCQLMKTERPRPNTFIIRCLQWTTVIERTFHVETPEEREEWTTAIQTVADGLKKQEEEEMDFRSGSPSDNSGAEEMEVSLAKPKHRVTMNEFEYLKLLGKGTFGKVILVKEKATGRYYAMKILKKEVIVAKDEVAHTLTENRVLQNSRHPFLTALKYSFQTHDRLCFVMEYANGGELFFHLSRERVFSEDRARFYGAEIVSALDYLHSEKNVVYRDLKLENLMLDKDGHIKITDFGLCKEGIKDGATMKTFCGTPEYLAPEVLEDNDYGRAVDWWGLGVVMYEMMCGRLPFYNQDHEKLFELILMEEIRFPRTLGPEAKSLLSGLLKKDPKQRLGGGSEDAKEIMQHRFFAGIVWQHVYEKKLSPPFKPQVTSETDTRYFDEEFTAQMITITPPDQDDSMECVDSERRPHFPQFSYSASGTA

Work on `Cc1cc(-c2ccnc3[nH]cc(F)c23)ccc1[C@@]1(O)[C@H](C)CN(C(=O)CN)C[C@@H]1C` [Compound 60, 2-amino-1-((3R,4s,5S)-4-(4-(3-fluoro-1H-pyrrolo[2,3-b]pyridin-4-yl)-2-methylphenyl)-4-hydroxy-3,5-dimethylpiperidin-1-yl)ethan-1-one] yielded a pIC50 (AKT; [1]) of 7.31 and a pIC50 (LATS1; [1]) of 8.08.

`NCC(O)(c1ccc(Cl)cc1)c1ccc(-c2ccnc3[nH]cc(Br)c23)nc1` (centres unmarked) [Compound 1011, 2-amino-1-(6-(3-bromo-1H-pyrrolo[2,3-b]pyridin-4-yl)pyridin-3-yl)-1-(4-chlorophenyl)ethan-1-ol] was tested, and the pIC50 (AKT; [2]) was 9.00 and the pIC50 (LATS1; [2]) was 9.05.

`C[C@@H]1CNC[C@H](C)[C@@]1(O)c1ccc(-c2ccnc3[nH]cc(F)c23)cc1F` [Compound 7, (3S,4s,5R)-4-(2-fluoro-4-(3-fluoro-1H-pyrrolo[2,3-b]pyridin-4-yl)phenyl)-3,5-dimethyl piperidin-4-ol] gave a pIC50 (AKT; [1]) of 6.72 and a pIC50 (LATS1; [1]) of 7.80.

`NCC(O)(c1ccc(Cl)cc1)c1ccc(-c2ccnc3[nH]ccc23)cc1` (centres unmarked) [Compound 1001, 1-(4-(1H-pyrrolo[2,3-b]pyridin-4-yl)phenyl)-2-amino-1-(4-chlorophenyl)ethan-1-ol] gave a pIC50 (AKT; [2]) of 9.22 and a pIC50 (LATS1; [2]) of 8.74.
